# Laboratory results published in PubChem BioAssay (NCI).
#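 The compound was tested at five concentrations on cells cultured in 96-well plates, with a 48-hour exposure period. TGI: concentration producing complete growth inhibition.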
# Assays:
# Assay in all cases: inhibition of tumour cell growth, NCI panel, 48 h
# [1] = system: 786-0 renal
# [2] = system: A549 NSCLC
# [3] = system: OVCAR-4 ovarian
# [4] = system: SNB-19 CNS
# [5] = system: SF-295 CNS
# [6] = system: MALME-3M melanoma
# [7] = system: MOLT-4 leukemia
# [8] = system: M14 melanoma
# [9] = system: NCI-H226 lung
# [10] = system: HL-60(TB) leukemia
Compound,TGI [1] [µM],TGI [2] [µM],TGI [3] [µM],TGI [4] [µM],TGI [5] [µM],TGI [6] [µM],TGI [7] [µM],TGI [8] [µM],TGI [9] [µM],TGI [10] [µM]
Cn1nc(C(=O)N2CC(CCl)c3c2cc([N+](=O)[O-])c2ccccc32)cc1NC(=O)Nc1cc(C(=O)N2CC(CCl)c3c2cc([N+](=O)[O-])c2ccccc32)nn1C (stereo not given),> 100,> 100,> 100,> 100,> 100,> 100,> 100,> 100,> 100,–
Cc1cc(C(O)CNC(C)CCn2cnc3c2c(=O)n(C)c(=O)n3C)ccc1O (stereo not given),> 100,> 100,> 100,> 100,> 100,> 100,> 100,> 100,> 100,–
Nc1cc(N)c(N=Nc2cccc3c(S(=O)(=O)O)cccc23)cc1N=Nc1cc([N+](=O)[O-])ccc1O,> 100,67.9,> 100,> 100,> 100,64,> 100,> 100,–,–
O=C1/C(=C/c2ccc(Cl)cc2)Sc2scc(-c3cccc([N+](=O)[O-])c3)[n+]21,6.49,> 68.5,28.1,38.9,17.9,–,3.9,> 35,> 100,–
COc1cc2c(cc1OCCCCN1CCN(CCCCOc3cc4c(cc3OC)C(=O)N3CCC[C@H]3C=N4)CC1)N=C[C@@H]1CCCN1C2=O,41.1,> 100,12,–,0.242,–,–,0.0936,0.0891,–
CNc1ncnc2c1cnn2Cc1cn(CCCCO)nn1,> 100,> 100,> 100,> 100,> 100,> 100,> 100,> 100,> 100,–
CSc1nc(C)c(CCCl)c(Cl)n1,> 100,> 100,> 100,> 100,> 100,> 100,> 100,> 100,–,–
C#CC(O)Cc1ccc(OC)c2occc12 (stereo not given),> 100,> 100,> 100,> 100,> 100,> 100,–,> 100,> 100,–
Cc1cn2c(/C=C3/C(=O)Nc4ccccc43)c(C)nc2s1,> 100,50.7,–,> 100,> 100,> 100,15.2,> 100,–,2.53
CC(=O)O/N=C/c1cc2c(cc1Br)OCO2,> 349,> 349,–,–,> 349,> 349,> 349,–,–,> 349
O=C(O)CCc1nc2cc3ccccc3cc2[nH]c1=O,> 100,> 100,> 100,> 100,> 100,–,> 100,> 100,> 100,–
CCOC(=O)Oc1ccc2c(c1)c(=O)c1c(NCCCN(CC)CC)ccc3nnn2c31,15.7,16.9,20.2,19.5,21.3,29.7,> 100,25.4,19.8,–
CC#Cc1c(C#CC)c(OC)c2c(c1OC)C(=O)c1ccccc1C2=O,> 100,> 100,> 100,71.4,39.1,> 100,> 100,> 100,–,> 100
COc1ccccc1N1C(=O)CC(=O)N(C(=O)CCCCCCCCC(=O)N2C(=O)CC(=O)N(c3ccccc3OC)C2=S)C1=S,> 100,> 100,> 100,> 100,> 100,> 100,> 100,> 100,> 100,–
Cc1cc(C#N)c(Nc2ccccc2[N+](=O)[O-])s1,> 100,> 100,> 100,> 100,> 100,–,> 100,> 100,> 100,–
Cc1cc(C)nc(NS(=O)(=O)c2ccc(NC(=O)c3cccc4c(N)c5ccccc5nc34)cc2)n1,> 100,> 100,> 100,> 100,> 100,> 100,> 100,> 100,> 100,–
Cc1ccc(N2C(=O)C(=O)N(/N=C3\C(=O)Nc4ccccc43)C2=S)cc1,> 100,> 100,–,> 100,> 100,> 100,> 100,> 100,–,25.4
c1cc(C[S+]2CCCC2)oc1C[S+]1CCCC1,> 100,> 100,> 100,> 100,> 100,> 100,> 100,> 100,–,–
Cc1ccccc1NC(=O)CSc1nnc(Cc2ccccc2)o1,> 100,> 100,> 100,–,> 100,> 100,> 100,> 100,> 100,–
